Assay results as given in PubChem BioAssay (NCI).
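Assay format: 96-well plates, 48-hour exposure. GI50 marks 50% less growth. TGI: concentration producing complete growth inhibition.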 *1 amine or outer side, *2 acyl side, *3 side chain or, on linkers, in order; H or OH if unused. Where a SMILES comes first, the peptide text is derived from it. Bridges are numbered along the chain shown (N, C = ends). [ ]: non-standard residue; d: D form. ξ: configuration not given here. X35 = CC[C@H](C)[C@@H](N[*:1])[C@@H](O)CC(=O)O[C@H](C(=O)[C@H](C)C(=O)[*:2])C(C)C; NMeY = CN[C@@H](Cc1ccc(O)cc1)C(=O)O; dNMeL = CN[C@H](CC(C)C)C(=O)O; ξΔPro = O=C(O)C1C=CCN1

Experiments:
Test in all cases: NCI tumour cell line growth inhibition, 48 h
HCT-116 colon = system: HCT-116 colon
NCI/ADR-RES ovarian = system: NCI/ADR-RES ovarian
MDA-N = system: MDA-N
SW-620 colon = system: SW-620 colon
HOP-62 NSCLC = system: HOP-62 NSCLC
HT29 colon = system: HT29 colon
SF-295 CNS = system: SF-295 CNS
COLO 205 colon = system: COLO 205 colon
SF-539 CNS = system: SF-539 CNS
MALME-3M melanoma = system: MALME-3M melanoma

| Compound | TGI (HCT-116 colon) [µM] | TGI (NCI/ADR-RES ovarian) [µM] | TGI (MDA-N) [µM] | TGI (SW-620 colon) [µM] | TGI (HOP-62 NSCLC) [µM] | TGI (HT29 colon) [µM] | TGI (SF-295 CNS) [µM] | TGI (COLO 205 colon) [µM] | TGI (SF-539 CNS) [µM] | TGI (MALME-3M melanoma) [µM] | GI50 (HCT-116 colon) [µM] | GI50 (NCI/ADR-RES ovarian) [µM] | GI50 (MALME-3M melanoma) [µM] | GI50 (SW-620 colon) [µM] | GI50 (HOP-62 NSCLC) [µM] | GI50 (HT29 colon) [µM] | GI50 (SF-295 CNS) [µM] | GI50 (COLO 205 colon) [µM] | GI50 (SF-539 CNS) [µM] |
| --- | --- | --- | --- | --- | --- | --- | --- | --- | --- | --- | --- | --- | --- | --- | --- | --- | --- | --- | --- |
| C=C(CCOC)CCC1CCCCC(=C)[C@H]1O (some centres not stated) | > 100 | > 100 | > 100 | > 100 | > 100 | > 100 | > 100 | > 100 | – | – | – | – | – | – | – | – | – | – | – |
| COC(=O)/C=C1\C(=O)C=C2[C@@H]3C[C@H]4C[C@H](CC[C@@]4(C)N21)C3(C)NC(C)=O (some centres not stated) | 24 | > 77 | 33.4 | 24.7 | 60.7 | 28.2 | 44.1 | > 36.8 | 9.54 | – | – | – | – | – | – | – | – | – | – |
| NC(=S)N/N=C1\CCCC1C(O)(C(F)(F)Cl)C(F)(F)Cl (configuration not stated) | > 10 | > 10 | – | > 10 | > 10 | > 10 | > 10 | > 10 | > 10 | > 10 | – | – | – | – | – | – | – | – | – |
| CC1(C)[C@@H](OC(N)=O)C=C[C@]2(CO)[C@H]3CC[C@]4(C)[C@@H](c5ccc(=O)oc5)[C@@H](Cl)C[C@]4(O)C3=CC[C@@H]12 | 0.0104 | 0.0127 | – | 0.0145 | 0.00316 | 0.0154 | 0.0144 | 0.0244 | – | 0.00524 | < 0.0001 | < 0.0001 | 0.00239 | 0.00262 | < 0.0001 | 0.0024 | 0.00268 | 0.00578 | – |
| COc1cc2oc(=O)cc(C)c2c(OC)c1OC(C)=O | > 100 | > 100 | > 100 | > 100 | > 100 | > 100 | > 100 | > 100 | – | > 100 | – | – | – | – | – | – | – | – | – |
| CC(C)(C)C(=O)N1CCN(C=O)C1=S | > 100 | > 100 | – | > 100 | > 100 | > 100 | > 100 | > 100 | > 100 | > 100 | – | – | – | – | – | – | – | – | – |
| CC[C@H](C)[C@H]1NC(=O)[C@@H](NC(=O)[C@@H](CC(C)C)N(C)C(=O)C2C=CCN2)[C@@H](C)OC(=O)[C@H](Cc2ccc(OC)cc2)N(C)C(=O)[C@@H]2CCCN2C(=O)[C@H](CC(C)C)NC(=O)[C@@H](C)C(=O)[C@H](C(C)C)OC(=O)C[C@@H]1O (some centres not stated) (H-[ξΔPro][dNMeL]T[X35]LP[NMeY](Me); ester 3-C) | 5.41 | 0.52 | 0.081 | > 50 | 0.0363 | < 0.005 | 0.055 | 9.32 | – | 0.0146 | – | – | – | – | – | – | – | – | – |
| Cc1cn(CCOCCOC(=O)NC(CCCNC(N)=O)C(=O)O)c(=O)[nH]c1=O (configuration not stated) | > 100 | > 100 | > 100 | > 100 | > 100 | > 100 | > 100 | > 100 | > 100 | – | – | – | – | – | – | – | – | – | – |
| Cc1cc2nc(-c3c(N)ncc(C#N)c3-c3ccc(Cl)cc3)[nH]c2cc1C | 19.7 | > 100 | – | > 100 | 21.7 | > 100 | 27.5 | 83.4 | 5.78 | 78.8 | 3.47 | 15.7 | 14.5 | 32.4 | 6.36 | 6.06 | 10 | 6.24 | 2.07 |
| CCN(CC)/[N+]([O-])=N/O | > 100 | – | – | > 100 | > 100 | > 100 | > 100 | – | > 100 | – | – | – | – | – | – | – | – | – | – |
